Assay [1] has as its system SKOV3. Briefly: CCK-8 cell growth inhibition, SKOV3. Conditions: CCK-8 assay, 72-h incubation; read-out: Cell Lines IC50 SKOV3. In kind it is cell-based, human. How it is done: (§1) In vitro anticancer screening of all newly synthesized compounds towards human solid tumor cells, cervical (SiHa) and ovarian (SKOV3) cancer cell lines, was carried out by standard CCK-8 assay with cisplatin as the positive control, as cisplatin is one of the most used chemotherapy drugs. […] The compound was further evaluated in a dose response study against a panel of solid tumor cells, including cervical cancer cell lines (SiHa and HeLa), ovarian cancer cell lines (SKOV3 and OVCAR-5), breast cancer cell lines (4T1 and MCF-7), lung cancer cell lines (A549 and H460) to test cytotoxic activity. The IC50 values were summarized in Table 2, including the cytotoxic activity of the cisplatin used as reference compound.
(§2) The viability of cells as determined using the CCK8 assay method. Cells were seeded (2000–3000 cells per well) in 96-well plates. After incubation for 24 h in serum-containing media, the cells were treated with drugs at different concentrations diluted with culture medium for 72 h at 37 °C with a 5% CO2 atmosphere. Then, 10 μL CCK8 regent (Promega, WI) was added to each well, and the plates were incubated for 1–4 h at 37 °C. Finally, absorbance values of test wells (AS), control wells (AC) and blank wells (Ab) at 450 nm were read using the Microplate Reader (Promega, WI). Inhibition ratios were calculated as follows: [(AC − AS)/ (AC−Ab)] × 100%. IC50 values were calculated using GraphPad software.
For orientation: Tetrazolium assays rely on reduction of a dye to a coloured formazan, in cell work by metabolically active cells.

Assay [2] has as its system SiHa. In words: CCK-8 cell growth inhibition, SiHa. The format is cell-based, human. Conditions: CCK-8 assay, 72-h incubation; read-out: Cell Lines IC50 SiHa. How it is done:
as §1, §2

For assay [3], the system named is HeLa. In words: CCK-8 cell growth inhibition, HeLa. The format is cell-based, human. Conditions: cervical cancer; CCK-8 assay, 72-h incubation. How it is done:
as §1
(§3) The viability of cells as determined using the CCK8 assay method. Cells were seeded (2000–3000 cells per well) in 96-well plates. After incubation for 24 h in serum-containing media, the cells were treated with drugs at different concentrations diluted with culture medium for 72 h at 37 °C with a 5% CO2 atmosphere. […] Finally, absorbance values of test wells (AS), control wells (AC) and blank wells (Ab) at 450 nm were read using the Microplate Reader (Promega, WI). Inhibition ratios were calculated as follows: [(AC − AS)/ (AC−Ab)] × 100%. IC50 values were calculated using GraphPad software.

The test system of assay [4] is MCF-7. In words: CCK-8 cell growth inhibition, MCF-7. Conditions: breast cancer; CCK-8 assay, 72-h incubation. In kind it is cell-based, human. The procedure: as §1, §3
The subject of assay [5] is 4T1. Briefly: CCK-8 cell growth inhibition, 4T1. In kind it is cell-based. Conditions: breast cancer; CCK-8 assay, 72-h incubation. How it is done:
as §1, §3

The test system of assay [6] is OVCAR-5. In words: CCK-8 cell growth inhibition, OVCAR-5. The format is cell-based, human. Conditions: ovarian cancer; CCK-8 assay, 72-h incubation. How it is done:
as §1, §3

For assay [7], the system named is A549. Briefly: CCK-8 cell growth inhibition, A549. The format is cell-based, human. Conditions: lung cancer; CCK-8 assay, 72-h incubation. How it is done:
as §1, §3

For assay [8], the system named is H460. Briefly: CCK-8 cell growth inhibition, H460. Conditions: lung cancer; CCK-8 assay, 72-h incubation. In kind it is cell-based, human. The procedure:
as §1, §3

The subject of assay [9] is SiHa xenograft. Briefly: SiHa xenograft mouse model, oral dosing. The format is in vivo. Conditions: SiHa xenograft mice, 20 mg/kg oral, every day. How it is done:
Based on a desirable set of in vitro properties, 12O was finally selected for further in vivo evaluation. We proceeded to test the antitumor efficacy of 12O in SiHa xenograft mice. Animals were orally given three doses (5, 10, and 20 mg Kg^−1) of 12O, one dose (20 mg Kg^−1) of cisplatin (positive control), or vehicle (control) every day. […] Of note, In Figure 5c, an obvious decrease in tumor size was also observed at the end of observation. The average tumor weight (Figure 5d) of the 12O-treated group was less than that of cisplatin. HE staining was further performed to identify the efficacy of 12O (Figure 5e). […] Additional kinase activities of 12O intimately associated with the growth, survival, and metastasis in tumor cells, may contribute to the antitumor activity, but may also cause side effects. Multi-target kinase inhibitor extensively used in clinic cancer therapy, while hampered by associated adverse reactions and side-effect. Thus, further evidence is needed. An in-depth study of compound 12O is ongoing in our laboratory and will be reported in due course.
All animal studies were conducted under the approval of the Experimental Animal Management Committee of Nankai University (No. NKUEC20190228). Six- to eight-week-old female BALB/c nude mice were purchased from Beijing HFK Bioscience Company. Mice were fed in an SPF-level laboratory animal room. The mice were kept in independent ventilation cages with autoclaved corncobs at the bottom of the cage as bedding. The dimensions of the cages were 390 × 180 × 180 mm. Environmental factors: Average air temperature ranged from 20 to 26 °C with average relative air humidity ranging from 40 to 70%. Noise was below 60 decibels. Ventilation times were more than 15 times/hour. Air velocity was 0.1~0.2m/s. The ammonia concentration was below 14/(mg/m³). Working illumination was 150~300LX and animal illumination was 15~20LX. The nutritional components of mouse food include: water content: ≤10%, crude protein: ≥18%, crude fat: ≥4%, crude fiber: ≥5%, minerals: ≥4%, calcium: 1.0–1.8%, Phosphorus: 0.6-1.2%. The water that mice drink is sterilized by the animal drinking system.
Cells SiHa were harvested during the exponential-growth phase, washed 3 times with serum-free medium, followed by resuspension at a concentration of 2 × 10^6 per mL. A total of 100 μL of cell suspension was injected into SCID mice subcutaneously. After the tumors had grown to 100−150 mm^3, all the mice were randomized into 5 groups (5 mice for each group, 25 mice total). The mice were treated daily via oral gavage administration with 12O (5, 10, or 20 mg kg^−1 d^−1), cisplatin (20 mg kg^−1 d^−1), or vehicle. […] Mice were monitored for side effects every day. Body weights and tumor sizes were determined every other day and volume was also observed. At the end-point of the study, all mice had survived. Mice were euthanized and the subcutaneous tumor tissues were stripped and collected. Tumor measurements were calculated using a digital vernier caliper, and the volumes were determined using the following calculation: (short^2) × long × 0.5. Inhibition rate of tumor growth was calculated using the following formula: 100 × {1 − [(tumor volume final-tumor volume initial) for 12O-treated group]/ [(tumor volume final-tumor volume initial) for the vehicle-treated group]} [23].

As a reminder, the IC50 is the concentration needed to halve the response being measured. As for `N.N.[Cl][Pt][Cl]` [Cisplatin, cisplatin, reference compound], the 50% inhibitory concentration (IC50) in [1] is 5360 nM; in assay [2] it was 4910 nM; in assay [3], 5810 nM; in assay [4] it was 7160 nM; in assay [5], 4260 nM; in [6], 1240 nM. Also, the results for the IC50 in assay [7] and in assay [8] were 8280 nM and greater than 10000 nM, respectively. Moreover, the “Tumor growth inhibition (TGI)” value in assay [9] is 31.14%.
Turning to “N-(3-bromophenyl)-N-(4-((5-fluoro-4-(1-isopropyl-1H-benzo[d](1,2,3)triazol-6-yl)pyrimidin-2-yl)amino)benzyl)cyclopropane-1,1-dicarboxamide [12E]”, the IC50 in assay [1] worked out at 778 nM; in assay [2], 66 nM.
Consider “N-(3-chlorophenyl)-N-(4-((5-fluoro-4-(1-isopropyl-1H-benzo[d](1,2,3)triazol-6-yl)pyrimidin-2-yl)amino)benzyl)cyclopropane-1,1-dicarboxamide [12C]”, for which the 50% inhibitory concentration (IC50) in assay [1] came out at 459 nM; in [2] it was 68 nM.
As to “N-(3-cyanophenyl)-N-(4-((5-fluoro-4-(1-isopropyl-1H-benzo[d](1,2,3)triazol-6-yl)pyrimidin-2-yl)amino)benzyl)cyclopropane-1,1-dicarboxamide [12K]”, the IC50 in assay [1] is 108 nM; in [2], 83 nM.
On the same counts, the results for “N-(4-((5-fluoro-4-(1-isopropyl-1H-benzo[d](1,2,3)triazol-6-yl)pyrimidin-2-yl)amino)benzyl)-N-(3-(trifluoromethyl)phenyl)cyclopropane-1,1-dicarboxamide [12M]” are 498 nM and 177 nM.
“N-(4-((5-fluoro-4-(1-isopropyl-1H-benzo[d](1,2,3)triazol-6-yl)pyrimidin-2-yl)amino)benzyl)-N-(3-fluorophenyl)cyclopropane-1,1-dicarboxamide [12A]”: the IC50 in assay [1] is 531 nM; in assay [2], 35 nM.
On the same counts, the results for “N-(4-((5-fluoro-4-(1-isopropyl-1H-benzo[d](1,2,3)triazol-6-yl)pyrimidin-2-yl)amino)benzyl)-N-(3-methoxyphenyl)cyclopropane-1,1-dicarboxamide [12G]” are 325 nM and 73 nM.
For “N-(4-((5-fluoro-4-(1-isopropyl-1H-benzo[d](1,2,3)triazol-6-yl)pyrimidin-2-yl)amino)benzyl)-N-(4-(trifluoromethyl)phenyl)cyclopropane-1,1-dicarboxamide [12N]” the same measures were 427 nM and 160 nM.
For “N-(4-((5-fluoro-4-(1-isopropyl-1H-benzo[d](1,2,3)triazol-6-yl)pyrimidin-2-yl)amino)benzyl)-N-(4-fluorophenyl)cyclopropane-1,1-dicarboxamide [12B]”, the values for the IC50 in [1] and in assay [2] were 199 nM and 28 nM, respectively.
On the same counts, the results for “N-(4-((5-fluoro-4-(1-isopropyl-1H-benzo[d](1,2,3)triazol-6-yl)pyrimidin-2-yl)amino)benzyl)-N-(4-methoxyphenyl)cyclopropane-1,1-dicarboxamide [12H]” are 312 nM and 80 nM.
“N-(4-((5-fluoro-4-(1-isopropyl-1H-benzo[d](1,2,3)triazol-6-yl)pyrimidin-2-yl)amino)benzyl)-N-(m-tolyl)cyclopropane-1,1-dicarboxamide [12I]”: the IC50 is 165 nM in assay [1] and 42 nM in assay [2].
Consider “N-(4-((5-fluoro-4-(1-isopropyl-1H-benzo[d](1,2,3)triazol-6-yl)pyrimidin-2-yl)amino)benzyl)-N-(p-tolyl)cyclopropane-1,1-dicarboxamide [12J]”, for which the IC50 in assay [1] was found to be 137 nM; in [2], 74 nM.
On the same counts, the results for “N-(4-bromophenyl)-N-(4-((5-fluoro-4-(1-isopropyl-1H-benzo[d](1,2,3)triazol-6-yl)pyrimidin-2-yl)amino)benzyl)cyclopropane-1,1-dicarboxamide [12F]” are 706 nM and 128 nM.
For the molecule “N-(4-chloro-3-(trifluoromethyl)phenyl)-N-(4-((5-fluoro-4-(1-isopropyl-1H-benzo[d](1,2,3)triazol-6-yl)pyrimidin-2-yl)amino)benzyl)cyclopropane-1,1-dicarboxamide [12P]”, the IC50 was determined as 915 nM in assay [1] and 231 nM in assay [2].
On to “N-(4-chlorophenyl)-N-(4-((5-fluoro-4-(1-isopropyl-1H-benzo[d](1,2,3)triazol-6-yl)pyrimidin-2-yl)amino)benzyl)cyclopropane-1,1-dicarboxamide [12D]”, for which the values for the IC50 in [1] and in assay [2] were 793 nM and 63 nM, respectively.
On the same counts, the results for “N-(4-cyanophenyl)-N-(4-((5-fluoro-4-(1-isopropyl-1H-benzo[d](1,2,3)triazol-6-yl)pyrimidin-2-yl)amino)benzyl)cyclopropane-1,1-dicarboxamide [12L]” are 101 nM and 63 nM.

The values above are taken from PMC7664879, “Discovery of 12O—A Novel Oral Multi-Kinase Inhibitor for the Treatment of Solid Tumor” (Molecules, 2020).
